{"source": "patent US10518266B2", "about": "“Microtiter plate and uses thereof” (ONEXIO BIOSYSTEMS LLC, priority 2016, dated 2019)", "type_in_all_cases": "cell-based", "key": {"[1]": {"system": "ER-transactivation in MVLNs", "test": "ER-transactivation in MVLN luciferase cells co-cultured with HepaRG cells in the device", "settings": "MVLN co-cultured with HepaRG vs mono-culture; FIG. 18C"}, "HEK293 cells [2]": {"system": "HEK293 cells"}, "HEK293 cells [3]": {"system": "HEK293 cells", "test": "Conferred cytotoxicity assay, HEK293 cells in co-culture with primary human hepatocytes in the device", "settings": "primary human hepatocytes (PHH) as bioactivator vs HEK293 mono-culture; FIG. 18a,b"}, "[4]": {"system": "estrogen receptor driven luciferase reporter protein stably expressed in the MVLN cell line", "test": "MVLN estrogen receptor driven luciferase reporter assay, co-culture with HepG2 cells in the device"}}, "note": "Where two headings read alike, the source gives them in different places."}
{"smiles": "Oc1ccc(Cc2ccccc2)cc1", "note": "[4-benzylphenol]", "values": [{"measurement": "ER-transactivation in MVLNs (metabolic competence of the device)", "setting": "[1]", "value": "shows competence"}]}
{"smiles": "COc1cc2c(c3oc(=O)c4c(c13)CCC4=O)[C@@H]1C=CO[C@@H]1O2", "note": "[aflatoxin]", "values": [{"measurement": "conferred toxicity to HEK293 cells", "setting": "HEK293 cells [2]", "value": "conferred toxicity"}]}
{"smiles": "COc1cccc2c1C(=O)c1c(O)c3c(c(O)c1C2=O)C[C@@](O)(C(=O)CO)C[C@@H]3O[C@H]1C[C@H](N)[C@H](O)[C@H](C)O1", "note": "[doxorubicin]", "values": [{"measurement": "conferred toxicity to HEK293 cells", "setting": "HEK293 cells [3]", "value": "conferred toxicity"}]}
{"smiles": "C[C@]12CC[C@H]3[C@@H](CCC4=CC(=O)CC[C@@]43C)[C@@H]1CC[C@@H]2O", "note": "[testosterone]", "values": [{"measurement": "MVLN reporter activity", "setting": "[4]", "value": "activates MVLN reporter activity"}]}
